Test results from patent publication US5229288A, “Cytotoxicity test method” (priority 1990, dated 1993).
Numbered stars: 1 amine (or outer) side, 2 acyl side, 3 side chain; on linkers, the order of the positions; unused ones are H or OH. Bridge positions count the residues as written; N and C are the ends. Square brackets hold non-standard residues; d marks the D form. Peptide text beside a SMILES is read from it. I, II: the chains in the order shown. Actinocin(9to1) = Cc1c2oc3c(C)ccc(C(=O)[*:1])c3nc-2c(C(=O)[*:2])c(N)c1=O; NMeV = CN[C@H](C(=O)O)C(C)C; Sar = CNCC(=O)O

Tests used:
[1] = in vitro; details: human, skin fibroblasts
Experimental: (§1) N-Isopropylacrylamide monomer (here "NIPAAm", a product of Eastman Kodak Co.) 50 g was dissolved in 500 ml benzene. 2,2'-Azobisisobutyronitrile (here "AIBN") 0.2 g was used as the polymerization initiator. Polymerization was carried out at 60° C. for 12 hours in a stream of nitrogen gas with constant agitation. The polymer thus obtained was precipitated in benzene and after decantation the precipitates formed were dissolved in tetrahydrofuran and purified with ethyl ether. […] This mixed solution was poured on the bottom of a commercially available plastic culture dish (Falcon, 35 mm), and it was air-dried aseptically in a clean bench at about 10° C. […] Fibroblasts derived from human skin were suspended in Dulbecco's modified Eagle medium ("DMEM", a product of GIBCO, containing 10% (w/v) calf serum) (cell concentration in the suspension: about 2×10^5 cells/ml). Two milliliters of this cell suspension was incubated at 37° C., and then it was poured in the coated dish which was pre-incubated at 37° C. It was cultured at 37° C. for 3 days in an air/5 volume% CO2 gas incubator. After 3 days at which point the cultured cells covered the surface of the bottom of the dish completely, the dish was taken out from the 37° C. incubator and left to stand at 4° C. on ice. After the cell sheet was completely detached from the surface of the bottom of the dish, the old medium was discarded and the sheet was washed twice with fresh medium at 4° C. to remove the dissolved polymer and the collagen.
(§2) During the shrinking process, the cell aggregate was examined at different times by a phase contrast microscope. Size (average values of longer diameter and shorter diameter) of the cell aggregate was measured, and % shrinkage which is a relative value considering the diameter of the cell sheet immediately after the detachment as 100% was calculated, and the results were plotted against time as shown in FIG. 1.
(§3) After a cell sheet was detached and transferred onto a hydrophobic dish in the same manner as in the Control Example, cycloheximide (here "CH") was added to the culture medium for the cell sheet to bring the concentration to 0.3 and 3μg/ml of medium, respectively. The shrinkage process of the detached cell sheet was examined by the phase contrast microscopy while the cell sheet was cultured in the culture medium containing CH in the hydrophobic dish. […] At the second day after detachment, as shown in FIG. 2A by an arrow sign, the added CH was completely removed by washing the cell aggregate with fresh culture medium and then transferring it into the vessel containing fresh culture medium.
(§4) Twelve hours before a cell sheet was detached from the cell culture substrate and transferred onto a hydrophobic dish in the same manner as in Control Example, actinomycin D (here "AD") was added to the culture medium to bring the concentration to 0.003 and 0.03 μg/ml of medium, respectively. Then the shrinkage process of the detached cell sheet was examined by phase contrast microscopy while the detached cell sheet was cultured in the culture medium containing 0.003 and 0.03 μg/ml (medium) of AD, respectively, in the hydrophobic dish.

[2] = tested on: fibroblasts derived from human skin; test: shrinkage of detached cell sheet to spherical cell aggregate (cytotoxicity test method of the invention), phase contrast microscopy
Experimental: as §1, §2, §3, §4

[3] = conventional monolayer culture on plastic tissue culture dish, morphological change under phase contrast microscope (Comparative Example); format: cell-based, human; details: human, skin fibroblasts; conventional monolayer culture; read-out: concentration for the detection of cytotoxicity by conventional monolayer culture
Experimental: (§5) The fibroblasts derived from human skin as used in Example 1 were cultured for 3 days on a plastic tissue culture dish (Falcon, 35 mm), and then cycloheximide and actinomycin D were added, respectively, in such an amount that the concentration of the medium would be 10 μg/ml, and the morphological change of the cells was examined under a phase contrast microscope. […] In contrast, the concentration for the detection of cytotoxicity by the conventional monolayer culture such as shown in this Comparative Example was higher than 10 μg/ml.

[4] = tested on: fibroblasts derived from human skin; test: as above; format: cell-based; details: 10 μg/ml, monolayer cultured for 3 days before addition
Experimental: as §5

[5] = AD more than 0.03 μg/ml, added twelve hours before detachment, FIG. 2B
[6] = CH more than 3 μg/ml, added after detachment and transfer, FIG. 2A

Row | Compound | MCC [1] [µg/mL] | formation of spherical cell aggregate [2, 5] | shrinkage behavior of phase II (0.5 th to second day after detachment) [2, 5] | shrinkage after removal of AD (reversibility) ([2]; AD removed by washing at second day after detachment, FIG. 2B) | concentration of AD which inhibits phase II relative to that of CH ([2]; ratio AD to CH) | MCC [3] [µg/mL] | morphological change of the cells [4] | formation of spherical cell aggregate [2, 6] | shrinkage behavior of phase II (0.5 th to second day after detachment) [2, 6] | shrinkage after removal of CH (reversibility) ([2]; CH removed by washing at second day after detachment, FIG. 2A)
1 | Cc1c2oc3c(C)ccc(C(=O)N[C@@H]4C(=O)N[C@H](C(C)C)C(=O)N5CCC[C@H]5C(=O)N(C)CC(=O)N(C)[C@@H](C(C)C)C(=O)O[C@@H]4C)c3nc-2c(C(=O)N[C@@H]2C(=O)N[C@H](C(C)C)C(=O)N3CCC[C@H]3C(=O)N(C)CC(=O)N(C)[C@@H](C(C)C)C(=O)O[C@@H]2C)c(N)c1=O [AD, actinomycin D] (I: T[dV]P[Sar][NMeV] / II: T[dV]P[Sar][NMeV]; ester I:1-I:C, II:1-II:C; linker I:N-II:N via Actinocin(9to1)) | 0.03 | no formation of any spherical cell aggregate was observed | significantly interrupted | the shrinkage started again | about 1/100 | > 10 | No morphological change was observed at all | – | – | –
2 | C[C@@H]1C[C@@H]([C@H](O)CC2CC(=O)NC(=O)C2)C(=O)[C@@H](C)C1 [CH, cycloheximide] | 3 | – | – | – | – | > 10 | No morphological change was observed at all | no formation of any spherical cell aggregate was observed | completely interrupted | the shrinkage started again
